This is an account of results in ChEMBL document CHEMBL1135952, “Successful bridging from a peptide to a non peptide antagonist at the human tachykinin NK-2 receptor” (Bioorg Med Chem Lett, 2002).

For test [1], the target named is T1, Substance-K receptor (Homo sapiens, UniProt P21452).
T1 sequence (P21452 whole entry): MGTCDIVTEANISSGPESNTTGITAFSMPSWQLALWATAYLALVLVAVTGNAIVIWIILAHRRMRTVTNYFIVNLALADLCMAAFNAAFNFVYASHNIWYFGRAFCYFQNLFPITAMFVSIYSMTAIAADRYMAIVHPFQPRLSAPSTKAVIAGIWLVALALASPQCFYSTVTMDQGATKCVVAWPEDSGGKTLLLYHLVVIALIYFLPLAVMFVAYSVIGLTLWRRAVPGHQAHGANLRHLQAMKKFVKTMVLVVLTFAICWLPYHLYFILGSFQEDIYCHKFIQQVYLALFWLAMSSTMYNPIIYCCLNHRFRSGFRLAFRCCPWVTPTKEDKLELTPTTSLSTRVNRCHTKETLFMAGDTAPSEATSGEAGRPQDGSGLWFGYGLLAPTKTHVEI
The test can be described thus: Functional affinity was evaluated by measuring the intracellular calcium concentration in CHO cells transfected with the human Tachykinin receptor 2 using Fura-2. Type of test: cell-based. The following applies: read-out: pA2 (converted).

For test [2], the target named is T1, Substance-K receptor. Nature of the test: Compound was tested for it's binding affinity against human Tachykinin receptor 2.

SMILES strings stand for the structures.

In general, Ki refers to a measure of affinity in units of concentration, obtained from inhibition or displacement. Higher therefore signals lower affinity. As to `O=C(c1ccccc1C(=O)N(CCCN1CCSCC1)CCc1c[nH]c2ccccc12)N(CCCN1CCSCC1)CCc1c[nH]c2ccccc12`, the Kb at Substance-K receptor [1] is 0.00398 µM. On Substance-K receptor [2], this compound had a Ki of 0.00398 µM.

Compound `O=C(c1ccccc1C(=O)N(CCCN1CCOCC1)CCc1c[nH]c2ccccc12)N(CCCN1CCOCC1)CCc1c[nH]c2ccccc12` gave a Ki on Substance-K receptor [2] of 0.0316 µM.

`CN(C)CCN(C)C(=O)c1nccnc1C(=O)N[C@@H]1CC(=O)N[C@@H](Cc2c[nH]c3ccccc23)C(=O)N[C@@H](Cc2ccccc2)C(=O)N[C@H](Cc2ccccc2)CNC1=O` showed a Ki on Substance-K receptor [2] of 0.002 µM.

Turning to `CN(CCc1c[nH]c2ccccc12)C(=O)c1ccccc1C(=O)N(CCCN1CCSCC1)CCc1c[nH]c2ccccc12`, at Substance-K receptor [1], the Kb was 0.01 µM. Besides, the affinity at Substance-K receptor [2] corresponds to a Ki of 0.01 µM.

Turning to `O=C(c1nccnc1C(=O)N(CCCN1CCOCC1)CCc1c[nH]c2ccccc12)N(CCCN1CCOCC1)CCc1c[nH]c2ccccc12`, on Substance-K receptor [2], the affinity corresponds to a Ki of 0.126 µM.

On to `O=C(NCCc1c[nH]c2ccccc12)c1nccnc1C(=O)N(CCCN1CCOCC1)CCc1c[nH]c2ccccc12`, for which the Ki at Substance-K receptor [2] was 0.501 µM.
